Experimental findings from US20260000676A1, “CHROMAN DERIVATIVES AS ESTROGEN RECEPTOR DEGRADERS” (THE REGENTS OF THE UNIVERSITY OF MICHIGAN, priority 2022, published 2026) are described below.

Counter-ions that a name gives are not always drawn.

Assay [1] addresses T1, ER (Homo sapiens (Human), UniProt P03372). The assay can be described thus: In-cell western (ICW) ER degradation assay in MCF-7 cells. The class given is cell-based. To be noted: MCF7, 16 hrs; for DC50: ER degradation; for Dmax: MCF7, maximal ER degradation. As to the method:
(§1) ERa degradative activity of compounds can be assessed in MCF-7 and T47D Cells. MCF-7 and T47D cell are seeded and are subsequently treated with the compounds at certain concentrations (e.g., 0.02 to 300 nM). DMSO can be used as vehicle control. Cells are fixed and are blocked with Intercept (PBS) Blocking Buffer (e.g., Li-COR, Odyssey Blocking Buffer), and are stained with ER (e.g., 1:500, Cell signaling) primary antibody for overnight at cold room. Secondary Antibody (e.g., IRDye 800CW Goat anti-Rabbit IgG) and CellTag 700 Stain are added in Intercept (PBS) Blocking Buffer. Finally, cell plate is placed in incubator to dry. Image and signal are captured on Odyssey® DLx Imaging System.
(§2) Day 3: After 16 hrs of compounds treatment, cells were fixed by 4% PFA and permeabilized with elution buffer (0.1% Triton X-100 in 1% PBS Solution). Subsequently, cells were blocked with Intercept (PBS) Blocking Buffer (Li-COR, Odyssey Blocking Buffer), and were stained with ER (1:500, Cell signaling) primary antibody for overnight at cold room.
(§3) Day 4: Remove the buffer, add IRDye 800CW Goat anti-Rabbit IgG Secondary Antibody (1:2000) and CellTag 700 Stain (1:500) in Intercept (PBS) Blocking Buffer. Finally, cell plate is placed in incubator to dry. Image and signal were captured on Odyssey® DLx Imaging System.

The target in assay [2] is T1, ER. Kind of assay: In-cell western (ICW) ER degradation assay in T47D cells. To be noted: 16 hrs; for DC50: ER degradation; for Dmax: maximal ER degradation. The class given is cell-based. As to the method:
as §1, §2, §3

T1 sequence (P03372 whole entry): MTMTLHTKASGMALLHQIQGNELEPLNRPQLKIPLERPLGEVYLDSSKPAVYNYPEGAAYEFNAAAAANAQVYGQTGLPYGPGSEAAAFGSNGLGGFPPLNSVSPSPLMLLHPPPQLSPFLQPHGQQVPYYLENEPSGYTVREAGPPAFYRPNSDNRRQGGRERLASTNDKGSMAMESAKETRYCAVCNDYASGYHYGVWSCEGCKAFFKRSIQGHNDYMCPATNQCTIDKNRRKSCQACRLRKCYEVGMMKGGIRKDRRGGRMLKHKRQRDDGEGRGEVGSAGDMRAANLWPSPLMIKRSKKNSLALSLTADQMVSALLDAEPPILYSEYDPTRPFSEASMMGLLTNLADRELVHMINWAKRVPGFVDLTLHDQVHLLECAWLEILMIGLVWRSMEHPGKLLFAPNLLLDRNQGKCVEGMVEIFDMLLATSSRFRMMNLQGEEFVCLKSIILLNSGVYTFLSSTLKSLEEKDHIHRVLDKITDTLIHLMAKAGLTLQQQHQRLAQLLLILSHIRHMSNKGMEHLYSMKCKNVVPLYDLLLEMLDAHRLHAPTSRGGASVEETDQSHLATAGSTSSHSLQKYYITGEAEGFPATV

As a reminder, the DC50 is the concentration at which degradation of the target reaches its halfway point. A high value points to degradation only at high concentration. Take `COc1ccc([C@H]2COc3cc(O)ccc3[C@H]2c2ccc(N3CCC(CN4CCN5c6ccc7c(c6OC[C@H]5C4)CN(C4CCC(=O)NC4=O)C7=O)CC3)cc2)cc1` (single isomer, unassigned) [Compound A16, 3-((R)-7-((1-(4-((3S,4R)-7-hydroxy-3-(4-methoxyphenyl)chroman-4-yl)phenyl)piperidin-4-yl)methyl)-1-oxo-1,3,5,5a, 6,7,8,9-octahydro-2H-pyrazino[1′,2′:4,5][1,4]oxazino[2,3-e]isoindol-2-yl)piperidine-2,6-dione]: the half-maximal degradation concentration (DC50) on ER [1] was under 1 nM.

As usually defined, the Dmax is the greatest extent of degradation seen. A low value points to a partial loss of target. In the case of `O=C1CCC(N2Cc3cc4c(cc3C2=O)OCC42CCN(CC3CC4(CCN(c5ccc([C@H]6c7ccc(O)cc7OC[C@H]6c6ccccc6)cn5)CC4)C3)CC2)C(=O)N1` (stereo partly drawn) [Compound A123, 3-(1′-((7-(5-((3R,4S)-7-hydroxy-3-phenylchroman-4-yl)pyridin-2-yl)-7-azaspiro[3.5]nonan-2-yl)methyl)-7-oxo-5,7-dihydro-2H,6H-spiro[furo[2,3-f]isoindole-3,4′-piperidin]-6-yl)piperidine-2,6-dione], the DC50 on ER [1] and on ER [2] was under 1 nM throughout. Moreover, the Dmax on ER [1] and at ER [2] was 50 to 75% in each case.

Consider `O=C1CCC(N2Cc3cc4c(cc3C2=O)OC[C@@H]2CN(CC3CCN(c5ccc([C@@H]6c7ccc(O)cc7OC[C@@H]6c6ccccc6)cc5F)CC3)CCN42)C(=O)N1` (single isomer, unassigned) [Compound A2, 3-((S)-3-((1-(2-fluoro-4-((3S,4R)-7-hydroxy-3-phenylchroman-4-yl)phenyl)piperidin-4-yl)methyl)-8-oxo-1,2,3,4,4a, 5,8,10-octahydro-9H-pyrazino[1′,2′:4,5][1,4]oxazino[2,3-f]isoindol-9-yl)piperidine-2,6-dione], for which the half-maximal degradation concentration (DC50) on ER [1] lay within 1 to 10 nM.

As to `COc1cccc([C@H]2COc3cc(O)ccc3[C@H]2c2ccc(N3CCC(CN4CCN5c6ccc7c(c6OC[C@H]5C4)CN(C4CCC(=O)NC4=O)C7=O)CC3)cc2)c1` (single isomer, unassigned) [Compound A33, 3-((R)-7-((1-(4-((3S,4R)-7-hydroxy-3-(3-methoxyphenyl)chroman-4-yl)phenyl)piperidin-4-yl)methyl)-1-oxo-1,3,5,5a,6,7,8,9-octahydro-2H-pyrazino[1′,2′:4,5][1,4]oxazino[2,3-e]isoindol-2-yl)piperidine-2,6-dione], the Dmax on ER [1] and on ER [2] was 50 to 75% throughout.

In the case of `O=C1CC[C@@H](N2Cc3c(ccc4c3OC[C@@H]3CN(CC5COC6(CCN(c7ccc([C@@H]8c9ccc(O)cc9OC[C@@H]8c8ccccc8)cc7F)CC6)C5)CCN43)C2=O)C(=O)N1` (single isomer, unassigned) [Compound A158, (3R)-3-((5aS)-7-((8-(2-fluoro-4-((3S,4R)-7-hydroxy-3-phenylchroman-4-yl)phenyl)-1-oxa-8-azaspiro[4.5]decan-3-yl)methyl)-1-oxo-1,3,5,5a,6,7,8,9-octahydro-2H-pyrazino[1′,2′:4,5][1,4]oxazino[2,3-e]isoindol-2-yl)piperidine-2,6-dione], the Dmax at ER [1] was 50 to 75%; on ER [2], at least 75%.

As for `O=C1CCC(N2Cc3cc4c(cc3C2=O)OC[C@@H]2CN(CC3CCN(c5ccc([C@@H]6c7ccc(O)cc7OC[C@@H]6c6ccccc6)cn5)CC3)CCN42)C(=O)N1` (single isomer, unassigned) [Compound A70, 3-((S)-3-((1-(5-((3S,4R)-7-hydroxy-3-phenylchroman-4-yl)pyridin-2-yl)piperidin-4-yl)methyl)-8-oxo-1,2,3,4,4a,5,8,10-octahydro-9H-pyrazino[1′,2′:4,5][1,4]oxazino[2,3-f]isoindol-9-yl)piperidine-2,6-dione], the Dmax at ER [1] is under 25%; at ER [2] it was 25 to 50%.

With `O=C1CCC(N2Cc3cc4c(cc3C2=O)OCC42CCN(CC3CC4(CCN(c5ccc([C@@H]6c7ccc(O)cc7OC[C@@H]6c6ccccc6)cc5)CC4)C3)CC2)C(=O)N1` (stereo partly drawn) [Compound A71, 3-(1′-((7-(4-((3S,4R)-7-hydroxy-3-phenylchroman-4-yl)phenyl)-7-azaspiro[3.5]nonan-2-yl)methyl)-7-oxo-5,7-dihydro-2H,6H-spiro[furo[2,3-f]isoindole-3,4′-piperidin]-6-yl)piperidine-2,6-dione], the 50% degradation concentration (DC50) on ER [1] and at ER [2] was under 1 nM each time. For the same molecule, the maximal degradation (Dmax) at ER [1] and on ER [2] was 50 to 75% throughout.

As to `COc1cc(N2CCC(CN3CCN4c5ccc6c(c5OC[C@@H]4C3)CN([C@@H]3CCC(=O)NC3=O)C6=O)CC2)ccc1[C@H]1c2ccc(O)cc2OC[C@H]1c1ccccc1` (single isomer, unassigned) [Compound A121, (R)-3-((S)-7-((1-(4-((3R,4S)-7-hydroxy-3-phenylchroman-4-yl)-3-methoxyphenyl)piperidin-4-yl)methyl)-1-oxo-1,3,5,5a, 6,7,8,9-octahydro-2H-pyrazino[1′,2′:4,5][1,4]oxazino[2,3-e]isoindol-2-yl)piperidine-2,6-dione], the half-maximal degradation concentration (DC50) at ER [1] and at ER [2] was under 1 nM each time.

`O=C1CCC(Nc2ccc3c(c2)OC[C@H]2CN(CC4CCN(c5ccc([C@@H]6c7ccc(O)cc7OC[C@@H]6c6ccccc6)cc5)CC4)CCN32)C(=O)N1` (single isomer, unassigned) [Compound A91, 3-(((R)-3-((1-(4-((3S,4R)-7-hydroxy-3-phenylchroman-4-yl)phenyl)piperidin-4-yl)methyl)-1,2,3,4,4a,5-hexahydrobenzo[b]pyrazino[1,2-d][1,4]oxazin-8-yl)amino)piperidine-2,6-dione hydrochloride]: the Dmax on ER [1] and on ER [2] was 50 to 75% throughout.

On ER [2], `O=C1CCC(N2Cc3cc4c(cc3C2=O)OCC42CCN(CC3CCN(c4ccc([C@@H]5c6ccc(O)cc6OC[C@@H]5c5ccccc5)cc4)CC3)CC2)C(=O)N1` (stereo partly drawn) [Compound A86, 3-(1′-((1-(4-((3S,4R)-7-hydroxy-3-phenylchroman-4-yl)phenyl)piperidin-4-yl)methyl)-7-oxo-5,7-dihydro-2H,6H-spiro[furo[2,3-f]isoindole-3,4′-piperidin]-6-yl)piperidine-2,6-dione] gave a DC50 of under 1 nM and a Dmax of 25 to 50%.

For the molecule `COc1cc(N2CCC(CN3CCC(c4ccc(N[C@H]5CCC(=O)NC5=O)cc4)CC3)CC2)ccc1[C@@H]1c2ccc(O)cc2OC[C@@H]1c1ccccc1` (stereo in doubt) [Compound A149, (S)-3-((4-(1-((1-(4-((3S,4R)-7-hydroxy-3-phenylchroman-4-yl)-3-methoxyphenyl)piperidin-4-yl)methyl)piperidin-4-yl)phenyl)amino)piperidine-2,6-dione], on ER [1], the DC50 is under 1 nM and the Dmax is 50 to 75%. Besides, on ER [2], the DC50 was under 1 nM and the Dmax was in the range of 50 to 75%.

Regarding `O=C1CCC(N2Cc3cc4c(cc3C2=O)OC[C@@H]2CN(CC3CCN(c5ccc([C@@H]6c7ccc(O)cc7OC[C@@H]6c6ccccc6)cc5)CC3)CCN42)C(=O)N1` (single isomer, unassigned) [Compound A1], at ER [1], the DC50 lay in the range of 1 to 10 nM and the Dmax is 50 to 75%.

For the molecule `O=C1CC[C@@H](N2Cc3c(ccc4c3OC[C@H]3CN(CC5CC6(CCN(c7ccc([C@@H]8c9ccc(O)cc9OC[C@@H]8c8ccccc8)cc7)CC6)C5)CCN43)C2=O)C(=O)N1` (single isomer, unassigned) [Compound A89], at ER [1], the DC50 was under 1 nM and the greatest degradation seen (Dmax) was at least 75%. For the same molecule, on ER [2], the 50% degradation concentration (DC50) was under 1 nM and the Dmax was at least 75%.

On ER [1], `O=C1CC[C@@H](N2Cc3cc4c(cc3C2=O)OC[C@H]2CN(CC3COC5(CCN(c6ccc(C7c8ccc(O)cc8OCC7c7ccccc7)cc6)CC5)C3)CCN42)C(=O)N1` (stereo in doubt) [Compound A139, (3R)-3-((4aR)-3-((8-(4-((3R,4S)-7-hydroxy-3-phenylchroman-4-yl)phenyl)-1-oxa-8-azaspiro[4.5]decan-3-yl)methyl)-8-oxo-1,2,3,4,4a, 5,8,10-octahydro-9H-pyrazino[1′,2′:4,5][1,4]oxazino[2,3-f]isoindol-9-yl)piperidine-2,6-dione] showed a DC50 of under 1 nM and a Dmax of 50 to 75%. On ER [2], this molecule displayed a half-maximal degradation concentration (DC50) of under 1 nM and a Dmax of 50 to 75%.

As for `O=C1CCC(N2Cc3cc4c(cc3C2=O)OC[C@@H]2CN(CC3CCN(c5ccc([C@@H]6c7ccc(O)cc7OC[C@@H]6c6ccccc6)cc5F)CC3)CCN42)C(=O)N1` (single isomer, unassigned) [Compound A2], the Dmax at ER [1] was in the range of 50 to 75%.

In the case of `O=C1CCC(N2C(=O)c3cc4c(cc3C2=O)CN(CC(=O)N2CCC3(CC2)CCN(c2ccc([C@@H]5c6ccc(O)cc6OC[C@@H]5c5ccccc5)cc2)CC3)C4)C(=O)N1` (single isomer, unassigned) [Compound A3], on ER [1], the DC50 was 1 to 10 nM and the greatest degradation seen (Dmax) lay in the range of 25 to 50%.

Consider `COc1ccc([C@H]2COc3cc(O)ccc3[C@H]2c2ccc(N3CCC(CN4CCN5c6ccc7c(c6OC[C@H]5C4)CN(C4CCC(=O)NC4=O)C7=O)CC3)cc2)cc1` (single isomer, unassigned) [Compound A16], for which, at ER [1], the Dmax is 50 to 75%.
